From patent publication US11091497B2, “Pyrano[3,4-b]pyrazine kappa opioid receptor ligands for treating addiction, pruritus, pain, and inflammation” (The Rockefeller University, priority 2017, dated 2021)

Key:
[1] = target: T1, kappa opioid receptor (PathHunter U2OS hOPRK1 membranes) (Homo sapiens, UniProt P41145); experiment: Tritiated U69,593 binding for KOP-R membranes
T1 construct: host or cells: U2OS (PathHunter U2OS hOPRK1 β-arrestin cell line)
Experimental: Tritiated U69,593 binding for KOP-R membranes; tritiated DAMGO binding for MOP-R membranes; and tritiated DPDPE binding for DOP-R membranes:
(§1) Membranes from cells stably expressing kappa, mu or delta opioid receptor constructs (PathHunter U2OS hOPRK1, CHO-K1 rOPRM1 and CHO-K1 OPRD1 β-arrestin cell line, DiscoverX, Fremont, Calif., USA) were used. Cells were scraped from tissue culture plates, homogenized with a tissue tearor homogenizer in membrane buffer (10 mM Tris, 100 mM NaCl, and 1 mM EDTA; pH 7.4), and centrifuged at 20,000 g for 30 minutes at 4° C. and frozen at −80° C. until use. Prior to use, the pellets were resuspended in binding buffer (50 mm Tris, 100 mm NaCl, pH 7.4), homogenized with a dounce homogenizer and […] incubated with 1.0 nM of the appropriate tritiated ligand ([^3H]U69,593, [^3H]DAMGO or [^3H]DPDPE for kappa, mu or delta binding, respectively) and the appropriate concentration of compound for 60 minutes at 30° C. Membranes with bound tritiated ligand were collected on Whatman GF/B filter paper (Brandel, Gaithersburg, Md., USA) utilizing a Brandel harvester. Bound tritiated ligand was quantified using a TriCarb-2900TR scintillation counter (Packard, Downers Grove, Ill., USA) following addition of 4 ml ReadySafe scintillation fluid (Beckman Coulter, Indianapolis, Ind., USA). Compiled data for each compound was normalized to the maximal binding in the absence of compound, with non-specific binding subtracted. Curve fitting was done in Microcal Origin 17.0 software using logistic sigmoidal fit, to determine IC50. GTPgammaS Membranes from U2OS cells stably expressing human kappa opioid receptors were used. Cells were scraped from tissue culture plates, homogenized with a tissue tearor homogenizer in membrane buffer (10 mM Tris, 100 mM NaCl, and 1 mM EDTA; pH 7.4), and centrifuged at 20,000 g for 30 minutes at 4° C. and frozen at −80° C. until use. Prior to use, the pellets were resuspended in assay buffer (50 mm Tris, 100 mm NaCl, 5 mM MgCl2, and 1 mM EDTA; pH 7.4) and homogenized with a dounce homogenizer and 50 μg incubated with 0.1 nM [35 S]GTPγS, 10 nM GDP, and the appropriate concentration of agonist for 20 minutes at 30° C. To test inhibition, all samples were incubated with 100 nM U69,593 as well as the appropriate concentration of compound. Membranes with bound [35 S]GTPγS were collected on Whatman GF/B filter paper (Brandel, Gaithersburg, Md., USA) utilizing a Brandel harvester. Bound [35 S]GTPγS was quantified using a TriCarb-2900TR scintillation counter (Packard, Downers Grove, Ill., USA) following addition of 4 mL ReadySafe scintillation fluid (Beckman Coulter, Indianapolis, Ind., USA). […] NA indicates not applicable. For each compound, curve fitting was done in Microcal Origin 17.0 software using logistic sigmoidal fit, to determine EC50 and maximal percent stimulation, which in turn was normalized to the maximal percent stimulation of the test full agonist compound U69,593 to determine % efficacy. β2-Arrestin Experiments were conducted using the PathHunter Detection Kit obtained from DiscoverX. Cells stably expressing kappa, mu or delta opioid receptor constructs (PathHunter U2OS hOPRK1, CHO-K1 rOPRM1 and CHO-K1 OPRD1 β-arrestin cell line, DiscoverX, Fremont, Calif., USA) were plated in 96- or 384-well plates. Cells were stimulated with the compounds for 90 minutes at 37° C. To test inhibition, all samples were incubated with 100 nM U69,593 as well as the appropriate concentration of compound. Cells were then incubated for 60 minutes in the presence of galoctosidase substrate, yielding chemiluminescent product. Chemiluminescence was measured using a Synergy Neo microplate reader (BioTek, Winooski, Vt., USA). Antagonism assays were done in the same manner, in the presence of 300 nM U69,593, 1 μM DAMGO or 1 μM DPDPE for KOP-R, MOP-R or DOP-R assays, respectively. […] NA indicates not applicable. […]

[2] = target: T2, human kappa opioid receptors (Homo sapiens, UniProt P41145); experiment: [35S]GTPγS stimulation, membranes from U2OS cells; type: biochemical; details: for Emax: read-out: GTPγS stimulation % efficacy
T2 construct: expressed in transfected cells; host or cells: U2OS
Experimental: Membranes from cells stably expressing kappa, mu or delta opioid receptor constructs (PathHunter U2OS hOPRK1, CHO-K1 rOPRM1 and CHO-K1 OPRD1 β-arrestin cell line, DiscoverX, Fremont, Calif., USA) were used. Cells were scraped from tissue culture plates, homogenized with a tissue tearor homogenizer in membrane buffer (10 mM Tris, 100 mM NaCl, and 1 mM EDTA; pH 7.4), and centrifuged at 20,000 g for 30 minutes at 4° C. and frozen at −80° C. until use. Prior to use, the pellets were resuspended in binding buffer (50 mm Tris, 100 mm NaCl, pH 7.4), homogenized with a dounce homogenizer and […] incubated with 1.0 nM of the appropriate tritiated ligand ([^3H]U69,593, [^3H]DAMGO or [^3H]DPDPE for kappa, mu or delta binding, respectively) and the appropriate concentration of compound for 60 minutes at 30° C. Membranes with bound tritiated ligand were collected on Whatman GF/B filter paper (Brandel, Gaithersburg, Md., USA) utilizing a Brandel harvester. Bound tritiated ligand was quantified using a TriCarb-2900TR scintillation counter (Packard, Downers Grove, Ill., USA) following addition of 4 ml ReadySafe scintillation fluid (Beckman Coulter, Indianapolis, Ind., USA). Compiled data for each compound was normalized to the maximal binding in the absence of compound, with non-specific binding subtracted. Curve fitting was done in Microcal Origin 17.0 software using logistic sigmoidal fit, to determine IC50. GTPgammaS Membranes from U2OS cells stably expressing human kappa opioid receptors were used. Cells were scraped from tissue culture plates, homogenized with a tissue tearor homogenizer in membrane buffer (10 mM Tris, 100 mM NaCl, and 1 mM EDTA; pH 7.4), and centrifuged at 20,000 g for 30 minutes at 4° C. and frozen at −80° C. until use. Prior to use, the pellets were resuspended in assay buffer (50 mm Tris, 100 mm NaCl, 5 mM MgCl2, and 1 mM EDTA; pH 7.4) and homogenized with a dounce homogenizer and 50 μg incubated with 0.1 nM [35 S]GTPγS, 10 nM GDP, and the appropriate concentration of agonist for 20 minutes at 30° C. To test inhibition, all samples were incubated with 100 nM U69,593 as well as the appropriate concentration of compound. Membranes with bound [35 S]GTPγS were collected on Whatman GF/B filter paper (Brandel, Gaithersburg, Md., USA) utilizing a Brandel harvester. Bound [35 S]GTPγS was quantified using a TriCarb-2900TR scintillation counter (Packard, Downers Grove, Ill., USA) following addition of 4 mL ReadySafe scintillation fluid (Beckman Coulter, Indianapolis, Ind., USA). […] For each compound, curve fitting was done in Microcal Origin 17.0 software using logistic sigmoidal fit, to determine EC50 and maximal percent stimulation, which in turn was normalized to the maximal percent stimulation of the test full agonist compound U69,593 to determine % efficacy. β2-Arrestin Experiments were conducted using the PathHunter Detection Kit obtained from DiscoverX. Cells stably expressing kappa, mu or delta opioid receptor constructs (PathHunter U2OS hOPRK1, CHO-K1 rOPRM1 and CHO-K1 OPRD1 β-arrestin cell line, DiscoverX, Fremont, Calif., USA) were plated in 96- or 384-well plates. Cells were stimulated with the compounds for 90 minutes at 37° C. To test inhibition, all samples were incubated with 100 nM U69,593 as well as the appropriate concentration of compound. Cells were then incubated for 60 minutes in the presence of galoctosidase substrate, yielding chemiluminescent product. Chemiluminescence was measured using a Synergy Neo microplate reader (BioTek, Winooski, Vt., USA). Antagonism assays were done in the same manner, in the presence of 300 nM U69,593, 1 μM DAMGO or 1 μM DPDPE for KOP-R, MOP-R or DOP-R assays, respectively.

[3] = target: T3, kappa opioid receptor (PathHunter U2OS hOPRK1 β-arrestin cell line) (Homo sapiens, UniProt P41145); experiment: β-arrestin coupling (PathHunter Detection Kit); type: cell-based; details: for Emax at 10 µM: U2OS, read-out: β-arrestin coupling % efficacy at 10 μM
T3 construct: host or cells: U2OS (PathHunter U2OS hOPRK1 β-arrestin cell line)
Experimental: as §1

T1 sequence (P41145 whole entry): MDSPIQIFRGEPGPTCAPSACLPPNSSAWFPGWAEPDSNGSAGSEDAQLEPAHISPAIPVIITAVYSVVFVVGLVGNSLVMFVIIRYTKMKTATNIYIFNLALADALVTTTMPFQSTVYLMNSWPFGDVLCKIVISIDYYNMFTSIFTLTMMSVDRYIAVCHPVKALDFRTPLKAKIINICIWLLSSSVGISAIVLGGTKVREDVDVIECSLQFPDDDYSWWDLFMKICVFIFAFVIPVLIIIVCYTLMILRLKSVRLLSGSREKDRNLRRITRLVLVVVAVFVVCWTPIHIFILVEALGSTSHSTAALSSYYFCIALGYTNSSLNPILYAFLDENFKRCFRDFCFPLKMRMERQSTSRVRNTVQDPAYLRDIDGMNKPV
T2 sequence (P41145 whole entry): as above
T3 sequence (P41145 whole entry): as above

Structure (SMILES) | IC50 [1] | EC50 [2] | Emax [2] | Emax at 10 µM [3] | β-arrestin coupling % efficacy ([3]; maximal, normalized to U69,593, No stim = no stimulation at highest dose tested, 10,000 nM)
O=C(Cc1ccc(Cl)c(Cl)c1)N1CCN(Cc2ccccc2)[C@H]2COC[C@@H](N3CCCC3)[C@@H]21 (single isomer, unassigned) [Example 5A53B] | 44 nM | 4.8 nM | 58% | 80% | 
O=C(Cc1ccc(Cl)c(Cl)c1)N1CCN(CC2CCC2)[C@@H]2COC[C@H](N3CCCC3)[C@H]21 (single isomer, unassigned) [Example 5A55A] | 94 nM | 30 nM | 84% |  | No stim
O=C(Cc1ccc(Cl)c(Cl)c1)N1CCN(CC2CCC2)[C@H]2COC[C@@H](N3CCCC3)[C@@H]21 (single isomer, unassigned) [Example 5A55B] | 20 nM | 13 nM | 62% | 80% | 
CC(C)CN1CCN(C(=O)Cc2ccc(Cl)c(Cl)c2)[C@H]2[C@H]1COC[C@@H]2N1CCCC1 [Example 5A71] | 27 nM | 14 nM | 93% | 40% | 
